PMC11125953 (Viruses, 2024)
Counter-ions that a name gives are not always drawn. Like-named read-outs stand apart in the source and are kept apart here.

Columns and labels:
[1] = tested on: EHV-4 405/76 reference strain; assay: RTCA; format: cell-based, Equid herpesvirus 4; settings: for AUCn: area under normalized Cell Index curves, 0-120 hpi, EHV-4-infected E. Derm cells
[2] = tested on: EHV-4 405/76 reference strain; settings: for Si (CC50/EC50, RTCA): ratio of CC50 to EC50 obtained by RTCA; for CIT50 increase: RTCA, EHV-4-infected E. Derm cells
[3] = tested on: EHV-4 405/76 reference strain; settings: ratio of CC50 to EC50 obtained by qPCR
[4] = Cytotoxicity by CellTiter-Glo; settings: horse
[5] = Cytotoxicity by impedance using RTCA; settings: horse, E. Derm cells
[6] = tested on: EHV-4 405/76 reference strain; assay: microbe, parasite or virus in culture
[7] = tested on: EHV-4 405/76 reference strain; assay: microbe, parasite or virus in culture; remark: listed apart in the source
[8] = in vitro; settings: horse
[9] = in vitro; settings: horse; remark: listed apart in the source
[10] = Equid alphaherpesvirus 4, read-out: RTCA EC50 (µM ± S.D)
[11] = Equid alphaherpesvirus 4, read-out: RTCA EC50 (µg/mL ± S.D)
[12] = Equid alphaherpesvirus 4, read-out: qPCR EC50 (µM ± S.D)
[13] = Equid alphaherpesvirus 4, read-out: qPCR EC50 (µg/mL ± S.D)
[14] = Equid alphaherpesvirus 4, 120 h, read-out: %AUCn

SMILES	AUCn ([1]; 0.4 µM)	AUCn ([1]; 2 µM)	AUCn ([1]; 10 µM)	AUCn ([1]; 50 µM)	other results
NC(=O)c1nc(F)c[nH]c1=O [Favipiravir]	30.35	41.18	37.23	74.44	
Nc1nc(=O)n([C@@H]2CS[C@H](CO)O2)cc1F [Emtricitabine]	36.81	35.47	34.12	37.28	
Nc1ccn([C@@H]2O[C@H](CO)[C@@H](O)[C@@H]2O)c(=O)n1 [Cytarabine]	28.59	32.46	91.79	91.89	
COc1nc(N)nc2c1ncn2[C@@H]1O[C@H](CO)[C@@H](O)[C@@H]1O [Nelarabine]	33.26	32.33	30.63	40.34	
CC(C)Nc1nc2cc(Cl)c(Cl)cc2n1[C@H]1O[C@@H](CO)[C@H](O)[C@@H]1O [Maribavir]	33.80	34.21	32.99	45.42	
CCC(C)(C)C(=O)O[C@H]1C[C@@H](C)C=C2C=C[C@H](C)[C@H](CC[C@@H]3C[C@@H](O)CC(=O)O3)[C@H]21 [Simvastatin]	34.65	32.56	24.99	20.58	
Nc1nc2nc[nH]c2c(=S)[nH]1 [6-thioguanine]	37.89	38.05	34.04	29.32	
CC[C@H](C)C(=O)O[C@H]1C[C@H](O)C=C2C=C[C@H](C)[C@H](CC[C@@H](O)C[C@@H](O)CC(=O)O)[C@H]21 [Pravastatin]	45.23	36.52	37.85	30.29	
Sc1ncnc2nc[nH]c12 [6-mercaptopurine]	39.53	37.02	28.97	27.72	
C[C@H](CCCC(C)(C)O)[C@H]1CC[C@H]2[C@@H]3CC=C4C[C@@H](O)CC[C@]4(C)[C@H]3CC[C@]12C [25-hydroxycholesterol]	39.29	34.81	29.79	31.86	
NCCCC(N)(C(=O)O)C(F)F (stereo not shown) [Eflornithin (dfmo), Eflornithin]	44.63	32.10	30.27	32.46	
Nc1nc(NC2CC2)c2ncn([C@H]3C=C[C@@H](CO)C3)c2n1 [Abacavir sulfate]	38.16	32.21	31.76	32.99	
Cc1cn([C@H]2C=C[C@@H](CO)O2)c(=O)[nH]c1=O [Stavudine]	37.85	32.94	32.23	30.20	
Nc1ccn(C[C@@H](CO)OCP(=O)(O)O)c(=O)n1 [Cidofovir]	38.54	42.07	40.56	59.40	Si (CC50/EC50, RTCA) [2]: >3.98; SI (CC50 CellTiter-Glo/EC50 qPCR) [3]: >6.26; CC50 ([4]; E. Derm cells): > 50 µM; CC50 [5]: > 50 µM; EC50 [6, 10]: 12.6 ± 4.32 µM; EC50 [6, 11]: 3.5 ± 1.21 µg/mL; EC50 [7, 12]: 7.99 ± 3.38 µM; EC50 [7, 13]: 2.23 ± 0.94 µg/mL
O=c1[nH]c(=O)n([C@H]2C[C@H](O)[C@@H](CO)O2)cc1/C=C/Br [Brivudine]	28.13	30.37	31.74	36.82	
O=c1c(-c2ccc(O)cc2)coc2cc(O)cc(O)c12 [Genistein]	11.7	12.8	13.3	11.8	activation at 0.4 µM [1, 14]: -17.5%; activation at 2 µM [1, 14]: -9.65%; activation at 10 µM [1, 14]: -6.34%; activation at 50 µM [1, 14]: -16.7%
Nc1nc2c(ncn2CCC(CO)CO)c(=O)[nH]1 [Penciclovir]	36.54	33.23	30.15	42.37	
CC(C)(C)C(=O)OCOP(=O)(COCCn1cnc2c(N)ncnc21)OCOC(=O)C(C)(C)C [Adefovir dipivoxil]	99.92	93.75	73.47	39.70	

SMILES	AUCn ([1]; 0.4 µM)	AUCn ([1]; 2 µM)	AUCn ([1]; 10 µM)	AUCn ([1]; 50 µM)	other results
O=C(N/N=C/c1ccc(O)c(O)c1)c1cc2ccccc2cc1O [Dynasore]	13.10	13.81	18.85	23.18	
Cc1ccc2c(=O)c3cccc(CC(=O)O)c3oc2c1C [DMXAA]	36.50	37.99	41.23	60.10	
Cc1cn([C@@H]2C[C@@H](O)[C@H](CO)O2)c(=O)[nH]c1=O [Telbivudine]	30.51	35.43	31.31	39.04	
O=c1[nH]cnc2c1ncn2[C@H]1CC[C@@H](CO)O1 [Didanosine]	37.77	36.23	29.27	38.91	
CC(C)n1c(/C=C/C(O)CC(O)CC(=O)O)c(-c2ccc(F)cc2)c2ccccc21 (stereo not shown) [Fluvastatin]	33.08	16.45	11.66	13.86	
C[C@@]1(O)[C@H](O)[C@@H](CO)O[C@H]1n1ccc(N)nc1=O [2′-C-methylcytidine]	37.52	35.13	26.93	30.32	
O=c1[nH]c(=O)n([C@H]2C[C@H](O)[C@@H](CO)O2)cc1I [Idoxuridine]	36.8	30.6	63.0	143.7	Si (CC50/EC50, RTCA) [2]: >1.48; SI (CC50 CellTiter-Glo/EC50 qPCR) [3]: >6.68; CC50 [8]: > 50 µM; CC50 [9]: > 50 µM; EC50 [6, 10]: 33.8 ± 15.8 µM; EC50 [6, 11]: 11.9 ± 5.61 µg/mL; EC50 [7, 12]: 7.49 ± 1 µM; EC50 [7, 13]: 2.65 ± 0.35 µg/mL
CC(=O)OCC(CCn1cnc2cnc(N)nc21)COC(C)=O [Famciclovir]	39.12	34.29	36.03	37.57	
CC(C)OC(=O)[C@H](C)N[P@](=O)(OC[C@H]1O[C@@H](n2ccc(=O)[nH]c2=O)[C@](C)(F)[C@@H]1O)Oc1ccccc1 [Sofosbuvir]	35.31	33.28	34.01	35.76	
[H]/N=C(\N/C(=N/[H])Nc1ccc(Cl)cc1)NC(C)C [Proguanil hydrochloride]	34.82	36.10	38.33	59.56	
CCCCCOC(=O)Nc1nc(=O)n([C@@H]2O[C@H](C)[C@@H](O)[C@H]2O)cc1F [Capecitabine]	35.92	36.42	36.13	33.97	
CC(C)[C@H](N)C(=O)OCCOCn1cnc2c(=O)[nH]c(N)nc21 [Valaciclovir]	33.27	28.12	27.99	42.38	
C[C@@]1(CO)[C@H](O)CC[C@@]2(C)[C@H]1CC[C@H]1C[C@@H]3C[C@@]12CC[C@]3(O)CO [Aphidicolin]	27.44	81.72	106.29		CIT50 increase ([2]; 1.25 µM): 7.48 ± 2.69 h; CIT50 increase ([2]; 2.5 µM): 22.43 ± 4.89 h; Si (CC50/EC50, RTCA) [2]: >23.15; SI (CC50 CellTiter-Glo/EC50 qPCR) [3]: >161.29; CC50 [4]: > 50 µM; CC50 [5]: > 50 µM; EC50 [6, 10]: 2.16 ± 0.18 µM; EC50 [7, 12]: 0.31 ± 0.09 µM; EC50 [7, 13]: 0.11 ± 0.03 µg/mL
O=c1[nH]cc(F)c(=O)[nH]1 [5-fluorouracil]	39.89	31.41	31.13	36.75	
CC(C)OC(=O)OCOP(=O)(CO[C@H](C)Cn1cnc2c(N)ncnc21)OCOC(=O)OC(C)C [Tenofovir disoproxil]	34.89	43.49	93.87	52.88	
Nc1ncnc2c1ncn2[C@@H]1O[C@H](CO)[C@@H](O)[C@@H]1O [Vidarabine]	41.3	35.7	48.7	71.5	Si (CC50/EC50, RTCA) [2]: >2.94; CC50 [8]: > 50 µM; CC50 [9]: > 50 µM; EC50 [6, 10]: 17 ± 4.5 µM; EC50 [6, 11]: 4.85 ± 1.28 µg/mL; EC50 [7, 12]: 13.7 ± 1.92 µM; EC50 [7, 13]: 3.91 ± 0.55 µg/mL
CCOC(=O)c1c(CSc2ccccc2)n(C)c2cc(Br)c(O)c(CN(C)C)c12 [Arbidol]	31.88	39.33	37.59	35.06	
Nc1nc(O)c2ncn(COC(CO)CO)c2n1 [Ganciclovir]	57.9	74.3	116.3	138.7	Si (CC50/EC50, RTCA) [2]: >12.35; SI (CC50 CellTiter-Glo/EC50 qPCR) [3]: >37.88; CC50 [8]: > 50 µM; CC50 [9]: > 50 µM; EC50 [6, 10]: 4.05 ± 0.22 µM; EC50 [6, 11]: 1.03 ± 0.06 µg/mL; EC50 [7, 12]: 1.32 ± 1.06 µM; EC50 [7, 13]: 0.34 ± 0.27 µg/mL
